Laboratory results as given in paper PMC8724172, “The effect of potent CYP2D6 inhibition on the pharmacokinetics and safety of deutetrabenazine in healthy volunteers” (European Journal of Clinical Pharmacology, 2021).
Values belong to the compound of their own block, whether it stands above or below them.

Legend:
[1] = Open-label sequential drug-drug interaction study: plasma pharmacokinetics of deutetrabenazine and its metabolites without and with steady-state paroxetine; conditions: for % Ratio of LS means (90% CI) (day 11)/(day 1), AUC0−t / % Ratio of LS means (90% CI) (day 11)/(day 1), AUC0−∞ / % Ratio of LS means (90% CI) (day 11)/(day 1), Cmax: deutetrabenazine + paroxetine vs deutetrabenazine alone; for Increase of half-life (t1/2) in presence of paroxetine / Increase of AUC0–∞ in presence of paroxetine / Increase of Cmax in presence of paroxetine: deutetrabenazine 22.5 mg; for Increase of half-life (t1/2) in presence of paroxetine: steady-state paroxetine vs alone; for Increase of AUC0–∞ in presence of paroxetine / Increase of Cmax in presence of paroxetine: population of 15 EM and 8 IM, steady-state paroxetine 20 mg daily vs alone
Text: This was an open-label sequential drug-drug interaction study in 24 healthy adult subjects who were CYP2D6 extensive metabolizers (EM) or CYP2D6 intermediate metabolizers (IM); Supplemental Table S1 provides the genotypes and phenotypes of the subjects.
Subjects checked into the clinic on day 1 and were confined through day 14. […] Those who met inclusion/exclusion criteria received a single dose of deutetrabenazine on day 1 followed by a 72-h washout. Subjects then received paroxetine on days 4 to 12 to achieve steady-state plasma concentrations of paroxetine by day 11. On day 11, another single dose of deutetrabenazine was administered. Triplicate 12-lead digital electrocardiograms (ECGs) were collected predose and for 10 h following deutetrabenazine dosing on day 1, and for 10 h on day 11, following paroxetine administration on day 10. Blood samples for measurement of plasma concentrations of deutetrabenazine and its metabolites were obtained on days 1 and 11 (predose, 1, 2, 2.5, 3, 3.5, 4, 4.5, 5, 6, 7, 8, 10, 12, and 16 h), days 2 and 12, at 24 and 36 h, days 3 and 13, at 48 and 60 h and days 4 and 14, at 72 h. Paroxetine trough levels were obtained pre-dose on days 9, 10, 11, and 12, and on day 13 at 24 h post the final paroxetine dose on day 12. Blood and urine samples were collected for clinical laboratory testing (hematology, serum chemistries, and urinalysis) at admission and after at least 10 h fasting and at study completion on day 14 or upon early withdrawal.
All participants received the following treatments, deutetrabenazine 22.5-mg oral dose as one 15-mg tablet + one 7.5-mg tablet on days 1 and 11 and one paroxetine 20 mg (Cadila Healthcare Ltd.) oral tablet on days 4 through 12. The deutetrabenazine 22.5-mg dose was administered with 237 mL of water in the morning approximately 30 min after a standardized breakfast meal with moderate fat content (35%). No food was allowed for at least 4 h postdose, and subjects were asked to remain upright for at least 4 h postdose, unless medically necessary.
Paroxetine 20 mg was administered in the morning with 237 mL water for 9 days (days 4 to 12) to ensure steady-state levels. On days 4 to 10 and 12, the paroxetine dose was administered in a fed state 30 min after breakfast. On day 11, as paroxetine can be administered without regard to food, subjects took the paroxetine dose under fasting conditions (at least 1 h prior to breakfast and 1.5 h prior to deutetrabenazine administration) following an overnight fast of at least 10 h. Subjects were asked to remain upright for at least 1 h after the paroxetine dose, unless medically necessary.
Validated liquid chromatography/tandem mass spectrometry methods were applied to assess plasma concentrations of paroxetine, deutetrabenazine, α- and β-HTBZ metabolites, and the O-desmethyl metabolites of α- and β-HTBZ. This was performed on a Sciex API 4000 instrument, equipped with a Turbo Ion Spray ion source operated in the positive ion mode and interfaced to a Shimadzu HPLC system fitted with a Waters XBridge C18 reverse phase column (3.5 µm; 50 × 2.1 mm) for paroxetine, deutetrabenazine, α-HTBZ and β-HTBZ or a Phenomenex Kinetex column (2.6 µm; 100 × 2.1 mm) for the O-desmethyl metabolites. The validated assay ranges were as follows: paroxetine 0.500 to 50.0 ng/mL, deutetrabenazine 0.100 to 10.0 ng/mL, deuterated α- and β-HTBZ 0.500 to 100 ng/mL, and 9-O- and 10-O-desmethyl metabolites of α-HTBZ and β-HTBZ 0.5 to 50.0 ng/mL. The methods were developed and validated by CPR Pharma Services, Pty, Ltd Australia, as described earlier.
Plasma concentrations, below the limit of quantitation (BLQ) of the assay, were designated a value of zero for initial and time points occurring at the end of the profile. For sampling time points between two quantifiable concentrations, plasma concentrations BLQ followed by a measurable concentration were set to the limit of quantitation of the assay.

[2] = Safety assessments (adverse events, ECG, C-SSRS) in the drug-drug interaction study
Protocol: Subjects checked into the clinic on day 1 and were confined through day 14. […] Subjects then received paroxetine on days 4 to 12 to achieve steady-state plasma concentrations of paroxetine by day 11. On day 11, another single dose of deutetrabenazine was administered. Triplicate 12-lead digital electrocardiograms (ECGs) were collected predose and for 10 h following deutetrabenazine dosing on day 1, and for 10 h on day 11, following paroxetine administration on day 10. […] Blood and urine samples were collected for clinical laboratory testing (hematology, serum chemistries, and urinalysis) at admission and after at least 10 h fasting and at study completion on day 14 or upon early withdrawal.

[3] = cited from earlier work; for Increase in exposure with paroxetine: after tetrabenazine administration
[4] = adverse events by treatment period, 24 subjects dosed
[5] = Subjects with EM phenotype (n = 15)
[6] = Subjects with IM phenotype (n = 8)
[7] = paroxetine administered with tetrabenazine

Mean plasma concentrations in the presence and absence of paroxetine ([1]; deutetrabenazine 22.5 mg oral, day 11 vs day 1): comparable | Cmax ([1]; human, in vivo): 0.3 (44) ng/mL | Tmax ([1]; human, in vivo): 3.5 (1.0–6.0) h | AUC0-t ([1]; human, in vivo, im): 1.0 (55) ng × h/mL | Cmax ([1]; human, in vivo, im): 0.5 (66) ng/mL | Tmax ([1]; human, in vivo, im): 3.5 (1.0–6.0) h | Cmax ([1]; human, in vivo, po, 22.5 mg): 0.4 (60) ng/mL
Compound: [2H]C([2H])([2H])Oc1cc2c(cc1OC([2H])([2H])[2H])C1CC(=O)C(CC(C)C)CN1CC2 (centres unmarked) [Deutetrabenazine]
Back pain [2, 4]: 0 (0%) n (%) | Chest discomfort [2, 4]: 0 (0%) n (%) | Decreased appetite [2, 4]: 0 (0%) n (%) | Dizziness [2, 4]: 1 (4%) n (%) | Feeling abnormal [2, 4]: 0 (0%) n (%) | Feeling hot [2, 4]: 0 (0%) n (%) | Gastrointestinal Disorders [2, 4]: 0 (0%) n (%) | General Disorders and Administration Site Conditions [2, 4]: 0 (0%) n (%) | Gingival pain [2, 4]: 0 (0%) n (%) | Headache [2, 4]: 0 (0%) n (%) | Hypoaethesia oral [2, 4]: 0 (%) n (%) | Local swelling [2, 4]: 0 (0%) n (%) | Metabolism and Nutritional disorders [2, 4]: 0 (0%) n (%) | Muscle tightness [2, 4]: 0 (0%) n (%) | Musculoskeletal and Connective Tissue Disorders [2, 4]: 0 (0%) n (%) | Nausea [2, 4]: 0 (0%) n (%) | Nervous System Disorders [2, 4]: 1 (4%) n (%) | Paraesthesia oral [2, 4]: 0 (0%) n (%) | Sensation of foreign body [2, 4]: 0 (0%) n (%) | Sensation of heaviness [2, 4]: 0 (0%) n (%) | Swollen tongue [2, 4]: 0 (0%) n (%) | Vomiting [2, 4]: 0 (0%) n (%) | Subjects with AEs, n (%) ([2]; by treatment period, 24 subjects dosed): 3 (13%) n (%) | Infections and Infestations ([2]; in vivo): 0 (0%) n (%) | Viral Infections ([2]; in vivo): 0 (0%) n (%) | Safety and tolerability ([2]; single doses of 22.5 mg, alone or in the presence of steady-state paroxetine (20 mg daily), healthy subjects): safe and generally well tolerated

Steady-state exposure (mean trough plasma concentrations, visual inspection) ([1]; paroxetine 20 mg oral daily on days 4–12): achieved on day 10
Compound: Fc1ccc([C@@H]2CCNC[C@H]2COc2ccc3c(c2)OCO3)cc1 [Paroxetine, reference compound]
Back pain [2, 4]: 1 (4%) n (%) | Chest discomfort [2, 4]: 1 (4%) n (%) | Decreased appetite [2, 4]: 3 (13%) n (%) | Dizziness [2, 4]: 1 (4%) n (%) | Feeling abnormal [2, 4]: 1 (4%) n (%) | Feeling hot [2, 4]: 1 (4%) n (%) | Gastrointestinal Disorders [2, 4]: 5 (21%) n (%) | General Disorders and Administration Site Conditions [2, 4]: 5 (21%) n (%) | Gingival pain [2, 4]: 1 (4%) n (%) | Headache [2, 4]: 5 (21%) n (%) | Hypoaethesia oral [2, 4]: 1 (4%) n (%) | Infections and Infestations [2, 4]: 1 (4%) n (%) | Local swelling [2, 4]: 1 (4%) n (%) | Metabolism and Nutritional disorders [2, 4]: 3 (13%) n (%) | Muscle tightness [2, 4]: 1 (4%) n (%) | Nervous System Disorders [2, 4]: 7 (29%) n (%) | Paraesthesia oral [2, 4]: 1 (4%) n (%) | Sensation of foreign body [2, 4]: 1 (4%) n (%) | Sensation of heaviness [2, 4]: 0 (0%) n (%) | Viral Infections [2, 4]: 1 (4%) n (%) | Headache, subjects reporting ([2]; most common AE, reported 8 times by 7 subjects overall): 5 subjects

% Ratio of LS means (90% CI) (day 11)/(day 1), AUC0−t ([1]; All subjects (n = 23)): 163.3 (148.3–179.8) % | % Ratio of LS means (90% CI) (day 11)/(day 1), AUC0−∞ ([1]; All subjects (n = 23)): 169.8 (153.8–187.5) % | % Ratio of LS means (90% CI) (day 11)/(day 1), Cmax ([1]; All subjects (n = 23)): 106.3 (90.0–125.4) % | % Ratio of LS means (90% CI) (day 11)/(day 1), AUC0−t [1, 5]: 181.6 (162.4–302.0) % | % Ratio of LS means (90% CI) (day 11)/(day 1), AUC0−∞ [1, 5]: 185.0 (165.8–206.4) % | % Ratio of LS means (90% CI) (day 11)/(day 1), Cmax [1, 5]: 119.9 (108.1–132.9) % | % Ratio of LS means (90% CI) (day 11)/(day 1), AUC0−t [1, 6]: 192.2 (162.9–226.8) % | % Ratio of LS means (90% CI) (day 11)/(day 1), AUC0−∞ [1, 6]: 193.6 (164.4–228.0) % | % Ratio of LS means (90% CI) (day 11)/(day 1), Cmax [1, 6]: 127.8 (111.8–146.1) % | Increase of half-life (t1/2) in presence of paroxetine [1]: 1.5 fold | Cmax ([1]; human, in vivo): 35.8 (21) ng/mL | AUC0–∞ ([1]; human, in vivo, im): 546 (22) ng × h/mL | Cmax ([1]; human, in vivo, im): 40.5 (22) ng/mL | Tmax ([1]; human, in vivo, im): 4.0 (2.0–7.0) h | t1/2 ([1]; human, in vivo, im): 13.0 (23) h | Cmax ([1]; human, in vivo, po, 22.5 mg): 37.4 (22) ng/mL | Increase of AUC0–∞ in presence of paroxetine [1]: 1.8 fold | Increase of Cmax in presence of paroxetine [1]: 1.2 fold
Compound: COc1cc2c(cc1OC)[C@@H]1C[C@H](O)[C@@H](CC(C)C)CN1CC2 [α-HTBZ]
Increase in exposure with paroxetine [3]: threefold | Increase of Cmax with paroxetine [3, 7]: 1.3 fold

% Ratio of LS means (90% CI) (day 11)/(day 1), AUC0−t ([1]; All subjects (n = 23)): 484.7 (355.2–661.5) % | % Ratio of LS means (90% CI) (day 11)/(day 1), AUC0−∞ ([1]; All subjects (n = 23)): 520.6 (388.9–697.0) % | % Ratio of LS means (90% CI) (day 11)/(day 1), Cmax ([1]; All subjects (n = 23)): 154.3 (126.0–189.0) % | % Ratio of LS means (90% CI) (day 11)/(day 1), AUC0−t [1, 5]: 641.3 (537.3–765.4) % | % Ratio of LS means (90% CI) (day 11)/(day 1), AUC0−∞ [1, 5]: 649.9 (549.6–768.5) % | % Ratio of LS means (90% CI) (day 11)/(day 1), Cmax [1, 5]: 216.4 (185.0–253.2) % | % Ratio of LS means (90% CI) (day 11)/(day 1), AUC0−t [1, 6]: 744.6 (605.3–915.8) % | % Ratio of LS means (90% CI) (day 11)/(day 1), AUC0−∞ [1, 6]: 731.5 (595.0–899.3) % | % Ratio of LS means (90% CI) (day 11)/(day 1), Cmax [1, 6]: 259.2 (216.7–310.1) % | Increase of half-life (t1/2) in presence of paroxetine [1]: 2.7 fold | Cmax ([1]; human, in vivo): 20.4 (33) ng/mL | AUC0–∞ ([1]; human, in vivo, im): 333 (75) ng × h/mL | Cmax ([1]; human, in vivo, im): 32.6 (22) ng/mL | Tmax ([1]; human, in vivo, im): 4.0 (2.0–8.0) h | t1/2 ([1]; human, in vivo, im): 7.9 (50) h | Cmax ([1]; human, in vivo, po, 22.5 mg): 24.6 (38) ng/mL | Increase of AUC0–∞ in presence of paroxetine [1]: 5.6 fold | Increase of Cmax in presence of paroxetine [1]: 2.1 fold
Compound: COc1cc2c(cc1OC)[C@H]1C[C@H](O)[C@H](CC(C)C)CN1CC2 [β-HTBZ]
Increase in exposure with paroxetine [3]: ninefold | Increase of AUC with paroxetine [3, 7]: ninefold
